According to patent US20240108559A1, “TOPICAL COMPOSITIONS CONTAINING SYNTHETIC ESTERS OF SINAPINIC ACID AND METHODS FOR TREATING KERATIN SURFACES” (ELC MANAGEMENT LLC, priority 2017, published 2024):
Where a name gives a salt, the structure may show the parent alone.

Key:
[1] = UV absorbance peak stability over time and temperature (UV visible spectroscopy); format: physicochemical; settings: 1.4 and 14 ppm in 50/50 water and butylene glycol, time 0, week 1, 2, 4, 25°, 40°, 50° C., FIG. 1, FIG. 2
Protocol: Sinapoyl malate and CAPE were evaluated for UV absorption. 50 and 100 ppm of each compound was dissolved in water and a second sample set of isopropanol. Additional samples of sinapyl malate and CAPE were prepared by dissolving 0.025% and 0.05% of each ingredient in a 50/50 mixture of water and butylene glycol. Further dilution to obtain a concentration of 1.4 ppm and 14 ppm was performed.
The samples were tested for UV absorption across the UV range by measuring with an Agilent 8453 UV visible spectroscopy system at wavelengths ranging across 200 to 450 nm at time 0, week 1, week 2, and week 4. The term “NA” means that a previously observed absorbance peak was no longer visible. The term “peak” means the two highest absorbance peaks in the UV spectrum. The term “valley” means the two lowest point between the absorbance peaks. In the case where there is only one peak or valley it means that the other, previously observed peak or valley was deteriorated at the time and temperature of the stability study. In the case where all peaks and valleys are indicated “NA” it means that the sample deteriorated entirely and no longer absorbed in the UV range at all.

| melting point | SMILES | stability of UV absorbance peaks over time and temperature [1] |
| --- | --- | --- |
| 55 to 65 °C | COc1cc(/C=C/C(=O)OC(CC(=O)O)C(=O)O)cc(OC)c1O (stereo not drawn) (as salt: malate) [Sinapoyl malate] | – |
| – | O=C(/C=C/c1ccc(O)c(O)c1)OCCc1ccccc1 [CAPE, reference compound] | much less stability over time and temperature |
| – | COc1cc(/C=C/C(=O)OC(CC(=O)O)C(=O)O)cc(OC)c1O (stereo not drawn) [Sinapoyl malate] | more stable over time and temperature |
